#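 Protocol summary: plate cells (96-well), add compound at 5 concentrations, incubate 48 h, interpolate endpoints linearly. GI50 marks 50% less growth. At the TGI there is no net growth.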
# Tests used:
# Assay in all cases: inhibition of tumour cell growth, NCI panel, 48 h
# [1] = test system: 786-0 renal
# [2] = test system: A498 renal
# [3] = test system: A549 NSCLC
# [4] = test system: ACHN renal
# [5] = test system: CAKI-1 renal
# [6] = test system: COLO 205 colon
# [7] = test system: DU-145 prostate
# [8] = test system: HCT-116 colon
# [9] = test system: HCT-15 colon
# [10] = test system: HL-60(TB) leukemia
# [11] = test system: HOP-62 NSCLC
# [12] = test system: HOP-92 NSCLC
# [13] = test system: HS 578T breast
# [14] = test system: HT29 colon
# [15] = test system: IGROV1 ovarian
# [16] = test system: K-562 leukemia
# [17] = test system: KM12 colon
# [18] = test system: M14 melanoma
# [19] = test system: MALME-3M melanoma
# [20] = test system: MCF7 breast
# [21] = test system: MDA-MB-231 breast
# [22] = test system: MDA-MB-435
# [23] = test system: MOLT-4 leukemia
# [24] = test system: NCI-H226 lung
# [25] = test system: NCI-H23 lung
# [26] = test system: NCI-H460 lung
# [27] = test system: NCI-H522 lung
# [28] = test system: NCI/ADR-RES ovarian
# [29] = test system: OVCAR-3 ovarian
# [30] = test system: OVCAR-4 ovarian
# [31] = test system: OVCAR-5 ovarian
# [32] = test system: OVCAR-8 ovarian
# [33] = test system: PC-3 prostate
# [34] = test system: RPMI-8226 leukemia
# [35] = test system: RXF 393 renal
# [36] = test system: SF-268 CNS
# [37] = test system: SF-295 CNS
# [38] = test system: SF-539 CNS
# [39] = test system: SK-MEL-2 melanoma
# [40] = test system: SK-MEL-28 melanoma
# [41] = test system: SK-MEL-5 melanoma
# [42] = test system: SK-OV-3 ovarian
# [43] = test system: SN12C renal
# [44] = test system: SNB-19 CNS
# [45] = test system: SNB-75 CNS
# [46] = test system: SR leukemia
# [47] = test system: SW-620 colon
# [48] = test system: T-47D breast
# [49] = test system: TK-10 renal
# [50] = test system: U251 CNS
# [51] = test system: UACC-257 melanoma
# [52] = test system: UACC-62 melanoma
# [53] = test system: UO-31 renal
# [54] = test system: CCRF-CEM leukemia
# [55] = test system: HCC-2998 colon
# [56] = test system: LOX IMVI melanoma
smiles,measurement,setting,value
CC(=O)Oc1cc(/C=C/c2ccc(O)cc2)cc(OC(C)=O)c1,TGI,[1],> 100 µM
same,TGI,[2],85.5 µM
same,TGI,[3],> 100 µM
same,TGI,[4],> 100 µM
same,TGI,[5],> 100 µM
same,TGI,[6],> 100 µM
same,TGI,[7],> 100 µM
same,TGI,[8],> 100 µM
same,TGI,[9],> 100 µM
same,TGI,[10],> 100 µM
same,TGI,[11],> 100 µM
same,TGI,[12],> 100 µM
same,TGI,[13],> 100 µM
same,TGI,[14],93.1 µM
same,TGI,[15],> 100 µM
same,TGI,[16],> 100 µM
same,TGI,[17],> 100 µM
same,TGI,[18],> 100 µM
same,TGI,[19],> 100 µM
same,TGI,[20],> 100 µM
same,TGI,[21],> 100 µM
same,TGI,[22],> 100 µM
same,TGI,[23],63.2 µM
same,TGI,[24],86.9 µM
same,TGI,[25],53.9 µM
same,TGI,[26],> 100 µM
same,TGI,[27],> 100 µM
same,TGI,[28],51.9 µM
same,TGI,[29],> 100 µM
same,TGI,[30],> 100 µM
same,TGI,[31],> 100 µM
same,TGI,[32],> 100 µM
same,TGI,[33],> 100 µM
same,TGI,[34],25.4 µM
same,TGI,[35],> 100 µM
same,TGI,[36],> 100 µM
same,TGI,[37],> 100 µM
same,TGI,[38],41.5 µM
same,TGI,[39],> 100 µM
same,TGI,[40],> 100 µM
same,TGI,[41],> 100 µM
same,TGI,[42],> 100 µM
same,TGI,[43],68.5 µM
same,TGI,[44],> 100 µM
same,TGI,[45],> 100 µM
same,TGI,[46],48.7 µM
same,TGI,[47],> 100 µM
same,TGI,[48],> 100 µM
same,TGI,[49],> 100 µM
same,TGI,[50],> 100 µM
same,TGI,[51],> 100 µM
same,TGI,[52],67.3 µM
same,TGI,[53],> 100 µM
O=C(Nc1cc(C(F)(F)F)cc(C(F)(F)F)c1)Nc1ccc(OCc2nnc(-c3ccc(Cl)cc3)o2)c(F)c1,GI50,[1],2 µM
same,TGI,[1],4.68 µM
same,GI50,[2],1.91 µM
same,TGI,[2],6.5 µM
same,GI50,[3],1.97 µM
same,TGI,[3],9.44 µM
same,GI50,[4],0.873 µM
same,TGI,[4],9.2 µM
same,GI50,[5],2.72 µM
same,TGI,[5],15.8 µM
same,GI50,[54],1.88 µM
same,TGI,[54],11.3 µM
same,GI50,[6],1.64 µM
same,TGI,[6],3.15 µM
same,GI50,[7],3.58 µM
same,TGI,[7],15.2 µM
same,GI50,[55],3.12 µM
same,TGI,[55],12 µM
same,GI50,[8],0.802 µM
same,TGI,[8],3.02 µM
same,GI50,[9],1.99 µM
same,TGI,[9],14 µM
same,GI50,[10],2.85 µM
same,TGI,[10],8.21 µM
same,GI50,[11],2.11 µM
same,TGI,[11],6.12 µM
same,GI50,[12],1.14 µM
same,TGI,[12],4.06 µM
same,GI50,[13],2.38 µM
same,TGI,[13],12.1 µM
same,GI50,[14],2.7 µM
same,TGI,[14],10.3 µM
same,GI50,[15],3.75 µM
same,TGI,[15],39.2 µM
same,GI50,[16],2.37 µM
same,TGI,[16],24.3 µM
same,GI50,[17],1 µM
same,TGI,[17],5.72 µM
same,GI50,[56],2.07 µM
same,TGI,[56],5.31 µM
same,GI50,[18],2.72 µM
same,TGI,[18],11.1 µM
same,GI50,[19],2.3 µM
same,TGI,[19],6.27 µM
same,GI50,[20],1.79 µM
same,TGI,[20],8.47 µM
same,GI50,[21],1.99 µM
same,TGI,[21],4.93 µM
same,GI50,[22],2.6 µM
same,TGI,[22],9.78 µM
same,GI50,[23],2.72 µM
same,TGI,[23],12 µM
same,GI50,[24],2.93 µM
same,TGI,[24],12.5 µM
same,GI50,[25],1.88 µM
same,TGI,[25],6.26 µM
same,GI50,[26],2 µM
same,TGI,[26],7.65 µM
same,GI50,[28],1.85 µM
same,TGI,[28],7.91 µM
same,GI50,[29],1.08 µM
same,TGI,[29],3.92 µM
same,GI50,[30],2.31 µM
same,TGI,[30],10 µM
same,GI50,[31],2.76 µM
same,TGI,[31],13.7 µM
same,GI50,[32],1.6 µM
same,TGI,[32],5.73 µM
same,GI50,[33],0.668 µM
same,TGI,[33],11.2 µM
same,GI50,[34],1.02 µM
same,TGI,[34],5.3 µM
same,GI50,[36],4.08 µM
same,TGI,[36],21 µM
same,GI50,[37],1.14 µM
same,TGI,[37],6.91 µM
same,GI50,[38],2.83 µM
same,TGI,[38],8.47 µM
same,GI50,[39],2.73 µM
same,TGI,[39],6.26 µM
same,GI50,[40],3.3 µM
same,TGI,[40],15.1 µM
same,GI50,[41],1.51 µM
same,TGI,[41],2.96 µM
same,GI50,[42],2.69 µM
same,TGI,[42],9.51 µM
same,GI50,[43],2.61 µM
same,TGI,[43],15.7 µM
same,GI50,[44],3.1 µM
same,TGI,[44],25.1 µM
same,GI50,[45],1.32 µM
same,TGI,[45],5.37 µM
same,GI50,[46],2.38 µM
same,TGI,[46],10 µM
same,GI50,[47],2.66 µM
same,TGI,[47],12.3 µM
same,GI50,[48],1.85 µM
same,TGI,[48],8.04 µM
same,GI50,[49],4.39 µM
same,TGI,[49],33.9 µM
same,GI50,[50],1.49 µM
same,TGI,[50],3.24 µM
same,GI50,[51],1.62 µM
same,TGI,[51],5.01 µM
same,GI50,[52],1.79 µM
same,TGI,[52],11.6 µM
same,GI50,[53],1.86 µM
same,TGI,[53],8.75 µM
